Where two headings read alike, the source gives them in different places.
What was measured:
[1] = test system: MCL-1ΔNΔC; experiment: High-throughput competitive FP binding screen, FITC-MCL-1 SAHB/MCL-1ΔNΔC interaction
[2] = molecular target: BCL-XLΔC (Homo sapiens, UniProt Q07817); experiment: High-throughput competitive FP binding screen, FITC-BAD BH3/BCL-XLΔC interaction
[3] = molecular target: MCL-1ΔNΔC (Homo sapiens, UniProt Q07820); experiment: High-throughput competitive FP binding screen, FITC-MCL-1 SAHB/MCL-1ΔNΔC interaction; design: the C-terminal alpha-helix was deleted from each of these constructs; GST (N, cleaved yes); made in house
[4] = selectivity for MCL-1ΔNΔC over BCL-XLΔC targeting (BCL-XL % Bound minus MCL-1 % Bound)
[5] = FITC-BAD BH3/BCL-XLΔC interaction pair, competitive FP screen
[6] = FITC-MCL-1 SAHB/MCL-1ΔNΔC interaction pair, competitive FP screen

Chain of BCL-XLΔC (Q07817 1-212 limits assumed, stated change not applied): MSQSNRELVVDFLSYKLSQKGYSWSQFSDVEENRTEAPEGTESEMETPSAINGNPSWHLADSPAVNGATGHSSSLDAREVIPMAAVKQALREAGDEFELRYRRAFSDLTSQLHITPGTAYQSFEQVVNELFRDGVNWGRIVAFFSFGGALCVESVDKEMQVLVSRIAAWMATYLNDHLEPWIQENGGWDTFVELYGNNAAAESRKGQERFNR
Chain of MCL-1ΔNΔC (Homo sapiens, UniProt Q07820) (Q07820 172-320 limits assumed, stated change not applied): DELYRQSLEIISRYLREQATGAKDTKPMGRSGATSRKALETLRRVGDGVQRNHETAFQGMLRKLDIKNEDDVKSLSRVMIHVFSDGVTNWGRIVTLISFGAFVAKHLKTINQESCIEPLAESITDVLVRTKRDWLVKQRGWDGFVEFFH

Compound | Spec Values [1, 4] | BCL-XL % Bound [2, 5] | MCL-1% Bound [3, 6] | Spec Values [1] | BCL-XL % Bound [2] | MCL-1% Bound [3]
O=C(O)c1cccc(-c2ccc(/C=C3\Sc4ccccc4C3=O)o2)c1 | 64.25 | 95.42% | 31.17% |  |  | 
Cn1c(S)nnc1CNc1cccc(C(F)(F)F)c1 | 47.12 | 102.2% | 55.09% |  |  | 
C=CCN1C(=O)/C(=C2/C(=O)Nc3ccccc32)c2ccccc21 | 47.06 | 77.55% | 30.48% |  |  | 
O=C(CSc1nnc(C2CC2)n1Cc1ccco1)c1cccc(Cl)c1 | 47.06 | 98.2% | 51.14% |  |  | 
O=S(=O)(NNc1cnc2ccccc2n1)c1ccccc1C(F)(F)F | 47.02 | 112.4% | 65.42% |  |  | 
CC1(C)CC(=O)C2=C(C1)Nc1ccc3ncccc3c1C2c1ccc(O)c(O)c1 (stereo not drawn) | 47.01 | 95.33% | 48.32% |  |  | 
N#C/C(=C/c1ccc(-c2ccc(C(=O)O)cc2)o1)c1ccc(Cl)cc1 | 46.64 | 82.47% | 35.83% |  |  | 
O=C(NC(=S)NCc1ccccc1)C1CCCC1 | 46.46 | 92.1% | 45.64% |  |  | 
CNC(=S)N/N=C1\CCOc2ccc3ccccc3c21 | 46.39 | 96.07% | 49.68% |  |  | 
CC1CCc2c(sc3ncn4c(S)nnc4c23)C1 (stereo not drawn) | 46.37 | 95.03% | 48.65% |  |  | 
Oc1ccc(SSc2ccc(O)cc2)cc1 | 46.28 | 104.4% | 58.12% |  |  | 
O=C(O)/C(S)=C\C=C\c1ccccc1 | 46.13 | 90.49% | 44.36% |  |  | 
CC1(C)c2ssc(=S)c2-c2ccccc2N1C(=O)CSC#N | 46.04 | 93.06% | 47.02% |  |  | 
CN1CCC(N(C)Cc2cc(C(C)(C)C)c(O)c(C(C)(C)C)c2)CC1 | 45.97 | 109.3% | 63.36% |  |  | 
O=C1c2ccccc2-c2onc3ccc(Oc4c(F)c(F)c(F)c(F)c4F)c1c23 | 45.97 | 86.73% | 40.76% |  |  | 
O=C1c2ccccc2CCC1Sc1nnc(-c2ccncc2)o1 (stereo not drawn) | 45.54 | 88.38% | 42.84% |  |  | 
N=C1NC(=O)/C(=C2/C(=O)Nc3ccc(Br)cc32)S1 | 45.52 | 95.58% | 50.06% |  |  | 
CCCCCSc1nnc(N/C=N/O)s1 | 45.49 | 98.25% | 52.76% |  |  | 
CCN(CC)c1ccc(C2C(C#N)=C(N)N(c3cccc(C)c3)C3=C2C(=O)CCC3)cc1 (stereo not drawn) | 45.46 | 98.46% | 53.01% |  |  | 
Oc1ccc(C2Oc3ccccc3C3CC(c4ccccc4O)=NN32)cc1 (stereo not drawn) | 45.43 | 93.42% | 47.99% |  |  | 
COC(=O)c1c(N)sc2c1Cc1ccccc1C2 | 45.24 | 92.93% | 47.69% |  |  | 

Compound | Spec Values [1, 4] | BCL-XL % Bound [2, 5] | MCL-1% Bound [3, 6] | Spec Values [1] | BCL-XL % Bound [2] | MCL-1% Bound [3]
CC(C)CSC1=NSC2=NC(=O)/C(=C\c3ccc(SCc4ccco4)o3)C(=N)N12 | 45.2 | 82.8% | 37.61% |  |  | 
Cc1ccnc(NC(c2ccco2)c2c(C)[nH]c3ccccc23)c1 (stereo not drawn) | 45.19 | 94.99% | 49.8% |  |  | 
Cc1c(Cl)cccc1N1C(=O)CC(Sc2nnnn2-c2ccccc2)C1=O (stereo not drawn) | 45.07 | 97.5% | 52.43% |  |  | 
O=c1cc(-c2ccccc2)oc2cc(O)c(O)c(O)c12 [Baicailen, reference compound] | 93.84 | 104.2% | 10.32% |  |  | 
CC1=C(O)C(=O)C=C2C1=CC=C1[C@@]2(C)CC[C@@]2(C)[C@@H]3C[C@](C)(C(=O)O)CC[C@]3(C)CC[C@]12C [Celastrol, reference compound] |  |  |  | 64.19 | 97.09% | 32.9%
Oc1c(Cl)cc(Cl)c(Cl)c1Cc1c(O)c(Cl)cc(Cl)c1Cl [Hexachlorophene, reference compound] |  |  |  | 59.35 | 100.4% | 41.01%
O=c1c(O)c(-c2cc(O)c(O)c(O)c2)oc2cc(O)cc(O)c12 [Myricetin, reference compound] | 68.23 | 102.4% | 34.13% |  |  | 
O=c1c(O)c(-c2ccc(O)c(O)c2)oc2cc(O)cc(O)c12 [Quercetin, reference compound] | 88.65 | 105.3% | 16.69% |  |  | 
O=C(OCC1O[C@H](OC(=O)c2cc(O)c(O)c(OC(=O)c3cc(O)c(O)c(O)c3)c2)[C@H](OC(=O)c2cc(O)c(O)c(OC(=O)c3cc(O)c(O)c(O)c3)c2)[C@@H](OC(=O)c2cc(O)c(O)c(OC(=O)c3cc(O)c(O)c(O)c3)c2)[C@@H]1OC(=O)c1cc(O)c(O)c(OC(=O)c2cc(O)c(O)c(O)c2)c1)c1cc(O)c(O)c(OC(=O)c2cc(O)c(O)c(O)c2)c1 (stereo partly drawn) [Tannic Acid, reference compound] | 82.32 | 98.26% | 15.94% |  |  | 
N#C/C(=C\c1ccc(O)c(O)c1)C(N)=S [Tyrphostin 47, reference compound] |  |  |  | 66.21 | 100.8% | 34.55%
Cc1ccc2c(c1)CC[C@H]1C3CC[C@H](NCCCCCCN4C(=O)C=CC4=O)[C@@]3(C)CC[C@H]21 (stereo partly drawn) [U73122, reference compound] | 49.67 | 106.3% | 56.6% |  |  | 
O=c1c(O)c(-c2cc(O)c(O)c(O)c2)oc2cc(O)cc(O)c12 [drawing 14] | 68.23 | 102.4% | 34.13% |  |  | 
N#C/C(=C\c1ccc(O)c(O)c1)C(N)=S [drawing 16] |  |  |  | 66.21 | 100.8% | 34.55%
COc1ccc2c(c1)CC[C@@H]1C2CC[C@@]2(C)C1CC[C@@H]2NCCCCCCN1C(=O)CCC1=O (stereo partly drawn) [drawing 18] | 49.67 | 106.3% | 56.6% |  |  | 
O=c1cc(-c2ccccc2)oc2cc(O)c(O)c(O)c12 [drawing 19] | 93.84 | 104.2% | 10.32% |  |  | 
O=c1oc2c(O)c(O)cc3c(=O)oc4c(O)c(O)cc1c4c23 [drawing 20] | 89.32 | 90.58% | 1.26% |  |  | 
Oc1c(Cl)cc(Cl)c(Cl)c1Cc1c(O)c(Cl)cc(Cl)c1Cl [drawing 23] |  |  |  | 59.35 | 100.4% | 41.01%
O=C(OCC1O[C@H](OC(=O)c2cc(O)c(O)c(OC(=O)c3cc(O)c(O)c(O)c3)c2)[C@H](OC(=O)c2cc(O)c(O)c(OC(=O)c3cc(O)c(O)c(O)c3)c2)[C@@H](OC(=O)c2cc(O)c(O)c(OC(=O)c3cc(O)c(O)c(O)c3)c2)[C@@H]1OC(=O)c1cc(O)c(O)c(OC(=O)c2cc(O)c(O)c(O)c2)c1)c1cc(O)c(O)c(OC(=O)c2cc(O)c(O)c(O)c2)c1 (stereo partly drawn) [drawing 25] | 82.32 | 98.26% | 15.94% |  |  | 
COc1ccc(N(C)C(=S)Nc2ccc3nc(-c4ccco4)c(-c4ccco4)nc3c2)cc1 [drawing 44] | 72.84 | 81.17% | 8.332% |  |  | 
CC1=NOC(=O)/C1=C/c1ccc(-c2ccc(Cl)cc2)o1 [drawing 53] |  |  |  | 65.98 | 101.5% | 38.47%
CC1=C(C#N)C(=O)N=C(O)/C1=C\c1ccc(-c2ccc(S(N)(=O)=O)cc2)o1 [drawing 84] | 76.4 | 98.2% | 21.8% |  |  | 

Source: patent US20150315211A1, “SMALL MOLECULES FOR THE MODULATION OF MCL-1 AND METHODS OF MODULATING CELL DEATH, CELL DIVISION, CELL DIFFERENTIATION AND METHODS OF TREATING DISORDERS” (priority 2010, published 2015)
